Reference: paper PMC11071649, “Synthesis and Selective Anticancer Activity Evaluation of 2-phenylacrylonitrile Derivatives as Tubulin Inhibitors” (Current Medicinal Chemistry, 2024)

Tests used:
Format in all cases: cell-based, human
[1] = tested on: Raji B lymphoblastoid cell; assay: MTT anti-proliferative assay, Raji; details: for IC50: MTT, 48 h, read-out: IC50 Raji
Protocol: (§1) The anti-proliferation activities of the synthesized analogs were assessed by an in vitro MTT assay conducted on thirteen human cell lines. Their cytotoxic activities were evaluated by measuring the inhibition of net cell growth. […]
(§2) 1.6. Cell lines and cell culture
(§3) MTT was purchased from Sigma-Aldrich Co. (St. Louis, MO, USA). The PI and Annexin V-FITC apoptosis detection kit were purchased from Invitrogen (Eugene, OR, USA). All human cell lines were used in this study. […]
(§4) cell, MCF-7 breast cancer cell, MCF-10A normal breast cell, Raji B lymphoblastoid cell and diffuse large B-cell lymphoma SU-DHL-10 cell were initially purchased from American Type Culture Collection (ATCC, Manassas, Virginia). media, DMEM, and FBS were provided from Gibco Company.
(§5) 1.7. Cell growth inhibition assay (MTT assay)
(§6) The experiment was carried out according to the method of reference. Briefly, cells were plated in 96-well plates at a den- […]
(§7) the anti-proliferative activities were determined by MTT assay. […]
(§8) (Becton-Dickinson, Franklin Lakes, NJ). […]

[2] = tested on: MGC-803 late stage differentiation gastric cancer cell; assay: MTT anti-proliferative assay, MGC-803; details: for IC50: MTT, 48 h
Protocol: as §1, §2, §3, §4, §5, §6, §7, §8

[3] = tested on: SGC-7901 early differentiation gastric cancer cell; assay: MTT anti-proliferative assay, SGC-7901; details: for IC50: MTT, 48 h
Protocol: as §1, §2, §3, §4, §5, §6, §7, §8

MCF-7 breast cancer cell = assay: MTT anti-proliferative assay, MCF-7; details: MTT, 48 h
Protocol: as §1, §2, §3, §4, §5, §6, §7, §8

A549 lung cancer cell = assay: MTT anti-proliferative assay, A549; details: MTT, 48 h
Protocol: as §1, §2, §3, §4, §5, §6, §7, §8

[4] = tested on: MCF-10A normal breast cell; assay: MTT assay, MCF-10A normal cells; details: 48 h
Protocol: as §1, §2, §3, §4, §5, §6, §7, §8

[5] = tested on: HeLa cervical cancer cell; assay: MTT anti-proliferative assay, HeLa; details: MTT, 48 h
Protocol: as §1, §2, §3, §4, §5, §6, §7, §8

AGS gastric cancer cell = assay: MTT anti-proliferative assay, AGS; details: for IC50: MTT, 48 h
Protocol: as §1, §2, §3, §4, §5, §6, §7, §8

L-02 normal liver cell = assay: MTT assay, L-02 normal cells; details: 48 h
Protocol: as §1, §2, §3, §4, §5, §6, §7, §8

HepG2 hepatoma cell = assay: MTT anti-proliferative assay, HepG2; details: for IC50: MTT, 48 h, read-out: IC50 HepG-2
Protocol: as §1, §2, §3, §4, §5, §6, §7, §8

[6] = tested on: diffuse large B-cell lymphoma SU-DHL-10 cell; assay: MTT anti-proliferative assay, SU-DHL-10; details: for IC50: MTT, 48 h, read-out: IC50 SU-DHL-10
Protocol: as §1, §2, §3, §4, §5, §6, §7, §8

[7] = tested on: HCT116 colectal cancer cell; assay: MTT anti-proliferative assay, HCT116; details: for IC50: MTT, 48 h, read-out: IC50 HCT-116
Protocol: as §1, §2, §3, §4, §5, §6, §7, §8

[8] = tested on: BEL-7402 liver cancer cell; assay: MTT anti-proliferative assay, BEL-7402; details: for IC50: MTT, 48 h
Protocol: as §1, §2, §3, §4, §5, §6, §7, §8

Structure (SMILES) | IC50 [1] | IC50 [2] | IC50 [3] | IC50 (MCF-7 breast cancer cell) | IC50 (A549 lung cancer cell) | IC50 [4] | IC50 [5] | IC50 (AGS gastric cancer cell) | IC50 (L-02 normal liver cell) | IC50 (HepG2 hepatoma cell) | IC50 [6] | IC50 [7] | IC50 [8] | SI (selectivity index), IC50 (L-02)/IC50 (MGC-803) [2] | SI (selectivity index), IC50 (L-02)/IC50 (SGC-7901) [3] | SI (selectivity index), IC50 (L-02)/IC50 (AGS) (AGS gastric cancer cell) | SI (selectivity index), IC50 (L-02)/IC50 (HepG-2) (HepG2 hepatoma cell) | SI (selectivity index), IC50 (L-02)/IC50 (HCT-116) [7] | SI (selectivity index), IC50 (L-02)/IC50 (BEL-7402) [8] | SI (selectivity index), IC50 (L-02)/IC50 (Raji) [1] | further results
N#C/C(=C\c1ccccc1)c1cccc(OC(F)(F)F)c1 [Compound 1b2a] | > 100 µM | > 100 µM | > 100 µM | > 100 µM | > 100 µM | > 100 µM | > 100 µM | > 100 µM | > 100 µM | > 100 µM | > 100 µM | > 100 µM | > 100 µM | – | – | – | – | – | – | – | –
N#C/C(=C\c1ccc(F)cc1)c1cccc(OC(F)(F)F)c1 [Compound 1b2b] | 17 ± 4.3 µM | 1.2 ± 0.6 µM | 5.4 ± 0.2 µM | > 100 µM | > 100 µM | 11.3 ± 2.3 µM | > 100 µM | 8.2 ± 2.6 µM | 16.1 ± 1 µM | 15.9 ± 5.2 µM | 60.4 ± 0.7 µM | 1.1 ± 0.3 µM | 3 ± 1 µM | > 13.1 | > 2.9 | > 1.9 | > 1.0 | > 14.5 | > 5.2 | – | –
N#C/C(=C\c1ccc(Cl)cc1)c1cccc(OC(F)(F)F)c1 [Compound 1b2c] | > 100 µM | > 100 µM | > 100 µM | > 100 µM | > 100 µM | > 100 µM | > 100 µM | > 100 µM | > 100 µM | > 100 µM | > 100 µM | > 100 µM | > 100 µM | – | – | – | – | – | – | – | –
N#C/C(=C\c1ccc(Br)cc1)c1cccc(OC(F)(F)F)c1 [Compound 1b2d] | 16.3 ± 6.1 µM | 10.1 ± 0.9 µM | 21.9 ± 3.3 µM | > 100 µM | > 100 µM | 34.1 ± 3.6 µM | 66.8 ± 9.8 µM | 13.9 ± 4.2 µM | 50.4 ± 0.8 µM | 34.9 ± 3.2 µM | 35.6 ± 0.9 µM | 15.1 ± 2.9 µM | 14.6 ± 4.6 µM | > 4.9 | > 2.3 | > 3.5 | > 1.4 | – | > 3.4 | > 3.0 | SI (selectivity index), IC50 (L-02)/IC50 (SU-DHL-10) [6]: > 1.4
Cc1ccc(/C=C(\C#N)c2cccc(OC(F)(F)F)c2)cc1 [Compound 1b2e] | 43.1 ± 4.5 µM | 11.1 ± 0.3 µM | 8.1 ± 2.9 µM | > 100 µM | > 100 µM | > 100 µM | 61.7 ± 3.3 µM | 4.5 ± 2 µM | 54.2 ± 12.3 µM | 38.2 ± 0.1 µM | 29.3 ± 2 µM | 25 ± 0.5 µM | 39.4 ± 6.1 µM | > 4.8 | > 6.6 | > 11.9 | > 1.4 | > 2.1 | > 1.3 | > 1.2 | SI (selectivity index), IC50 (L-02)/IC50 (SU-DHL-10) [6]: > 1.8
CCc1ccc(/C=C(\C#N)c2cccc(OC(F)(F)F)c2)cc1 [Compound 1b2f] | > 100 µM | 49.3 ± 0.3 µM | 61.7 ± 0.4 µM | > 100 µM | > 100 µM | > 100 µM | > 100 µM | 43.8 ± 21.8 µM | > 100 µM | 72.9 ± 9.9 µM | > 100 µM | > 100 µM | 44.8 ± 10.6 µM | > 2.0 | > 1.6 | > 2.2 | > 1.9 | – | > 2.2 | – | –
CC(C)c1ccc(/C=C(\C#N)c2cccc(OC(F)(F)F)c2)cc1 [Compound 1b2g] | > 100 µM | > 100 µM | > 100 µM | > 100 µM | > 100 µM | > 100 µM | > 100 µM | > 100 µM | > 100 µM | > 100 µM | > 100 µM | > 100 µM | > 100 µM | – | – | – | – | – | – | – | –
CN(C)c1ccc(/C=C(\C#N)c2cccc(OC(F)(F)F)c2)cc1 [Compound 1b2h] | 20.1 ± 2.3 µM | 3.7 ± 1.3 µM | 7.1 ± 2.4 µM | > 100 µM | > 100 µM | > 100 µM | > 100 µM | > 100 µM | 52 ± 8.4 µM | 42.3 ± 18.2 µM | > 100 µM | 0.3 ± 0.2 µM | 1 ± 0.8 µM | > 13.9 | > 7.2 | – | > 1.3 | > 153.1 | > 50.5 | > 2.5 | –
